Reference: paper PMC7688903 (Frontiers in Microbiology, 2020)
In brackets after ≈: the same amount, converted by molar mass. Where a SMILES comes first, the peptide text is derived from it. [ ]: non-standard residue; d: D form. 2Thi = N[C@@H](Cc1cccs1)C(=O)O; Aib = CC(C)(N)C(=O)O

Legend:
[1] = system: carbapenem-resistant P. aeruginosa (CRPA) SIPI-012; format: cell-based, Pseudomonas aeruginosa; conditions: carbapenem-resistant (CRPA) SIPI-012, 20 h
Summary of the method: (§1)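 Inocula were set to 0.5 McFarland and diluted to ~5 × 10^5 CFU/mL (bacteria, MH broth) or 0.5 × 10^3 to 2.5 × 10^3 CFU/mL (yeast, RPMI 1640). Peptide twofold dilutions were added, plates incubated 20 h at 37°C or 48 h at 35°C, then scored by eye.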

[2] = system: carbapenem-resistant A. baumannii (CRAB) SIPI-025; format: cell-based, Acinetobacter baumannii; conditions: carbapenem-resistant (CRAB) SIPI-025, 20 h
Summary of the method: as §1

A. baumannii ATCC 19606 = format: cell-based, Acinetobacter baumannii; conditions: ATCC 19606, 20 h
Summary of the method: as §1

human plasma proteases [3] = experiment: in vitro
Experimental: (§3) The peptides were mixed with plasma from healthy volunteers to a final concentration of 0.1 mg/mL and incubated at 37°C. Aliquots (20 or 40 μL) were removed after 0, 2, 4, 6, 8, 12, 24, and 36 h, mixed with 0.05% TFA to a final concentration of 0.01 mg/mL, and incubated on ice for 10 min. After centrifugation (12,000 × g, 5 min), the supernatant was stored at −20°C. The samples were analyzed as described in section “Hydrophobicity” and quantified as described in section “Stability Toward Tryptic Degradation.” All stability tests were performed at least in triplicate. The identities of the metabolites after 12 h of degradation by plasma proteases were determined by LC-MS on a Waters Acquity UPLC-QDa system.

[4] = Hydrophobicity by RP-HPLC retention time; format: physicochemical
Experimental: Each peptide was dissolved in ddH2O to a concentration of 0.5 mg/mL and then subjected to RP-HPLC on an analytical Waters XBridge C18 column (length: 250 mm, internal diameter: 4.6 mm) using 0.1% TFA in water as solvent A and 0.1% TFA in acetonitrile as solvent B. The peptides were eluted using a linear gradient as follows: 5%B to 45%B over 20 min, 45%B to 60%B over 2 min, and 60%B to 5%B over 1 min. The flow rate was 1 mL/min and the absorbance was measured at 215 nm. The retention time was recorded for each peptide ([Kim et al., 2005]).
Peptide hydrophobicity, net charge, amphipathic nature, and secondary structure are believed to be important for antimicrobial activity ([Lee et al., 2016]; [Li J. et al., 2017]). Among these, hydrophobicity has been recognized as an important factor to promote hydrophobic interaction with the hydrophobic core of the lipid bilayer, leading to membrane disruption, cytoplasm leakage, and eventual cell death ([Schmidtchen et al., 2014]). However, the actual hydrophobicity in liquid environment has been reported to usually show disagreement with the theoretical mean hydrophobicity ([Kim et al., 2005]). […] More hydrophobic compounds are typically eluted later from the column. […]

human plasma proteases [5] = system: human plasma proteases
Experimental: as §3

[6] = system: proteases secreted by C. albicans ATCC 10231; experiment: in vitro; conditions: C. albicans ATCC 10231 culture supernatant (2% tryptone/2% dextrose), pH 8.0, 0.22 μm filtered; peptide 0.5 mg/mL; 37°C, 24 h; RP-HPLC
Summary of the method: (§2)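 Cell-free culture supernatants (overnight, 37°C; MH broth for bacteria, 2% tryptone/2% dextrose for yeast) were centrifuged, adjusted to pH 8.0 and 0.22 μm filtered. Peptides at 0.5 mg/mL were incubated in supernatant 24 h at 37°C; remaining intact peptide measured by RP-HPLC, with peptide-free supernatant as negative control.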

[7] = system: proteases secreted by P. aeruginosa ATCC 27853; experiment: in vitro; conditions: Pseudomonas aeruginosa, P. aeruginosa ATCC 27853 culture supernatant, pH 8
Summary of the method: as §2

[8] = system: proteases secreted by A. baumannii ATCC 19606; experiment: in vitro; conditions: Acinetobacter baumannii, A. baumannii ATCC 19606 culture supernatant, pH 8
Summary of the method: as §2

[9] = system: all of the bacterial and fungal supernatants tested; conditions: pH 8.0, peptide 0.5 mg/mL, 37°C, 24 h, RP-HPLC
Experimental: The stabilities of the peptides toward proteases secreted by E. coli ATCC 25922, P. aeruginosa ATCC 27853, A. baumannii ATCC 19606, S. aureus ATCC 25923, and C. albicans ATCC 10231 were also examined. Microbial supernatants were prepared by resuspending single colonies of each strain in 20 mL of an appropriate culture medium followed by incubation at 37°C overnight. MH broth and 2% tryptone/2% dextrose were used as the culture media for bacteria and yeast, respectively. Each culture was then centrifuged at 12,000 × g for 10 min and the supernatant was adjusted to pH 8.0 with HCl or NaOH and then filtered through a 0.22 μm sterile filter membrane ([Zaet et al., 2017]). The peptides were then dissolved in the filtered supernatants to a concentration of 0.5 mg/mL, and the peptide-free supernatants were used as negative controls. The samples were incubated at 37°C for 24 h in a water bath and then analyzed by RP-HPLC as described above.

SMILES	MIC [1]	MIC [2]	MIC (A. baumannii ATCC 19606)	remaining at 12 h, 0.1 mg/mL (human plasma proteases [3])	remaining at 24 h, 0.1 mg/mL (human plasma proteases [3])	relative retention time (RRT) with respect to Pep05 ([4]; RP-HPLC retention time of peptide / that of Pep05, C18, acetonitrile/water/TFA)	RT (RP-HPLC retention time, measure of hydrophobicity) ([4]; chromatographic, Waters XBridge C18 250 x 4.6 mm, 0.5 mg/mL in ddH2O, A 0.1% TFA/water, B 0.1% TFA/acetonitrile, 5-45%B over 20 min, 1 mL/min, UV 215 nm)	degradation products by plasma proteases (LC-MS) (human plasma proteases [5])	Percent of remained peptide amount after incubation (%) [6]	remaining at 24 h, 0.5 mg/mL [7]	remaining at 24 h, 0.5 mg/mL [8]	remaining at 8 h, 0.1 mg/mL (human plasma proteases [3])	original peptide remaining in microbial supernatants [9]
CC(C)C[C@H](NC(=O)[C@H](Cc1ccc(O)cc1)NC(=O)[C@H](CCCCN)NC(=O)[C@H](CC(C)C)NC(=O)[C@H](CC(C)C)NC(=O)[C@H](CCCCN)NC(=O)[C@H](CCCCN)NC(=O)[C@H](Cc1ccccc1)NC(=O)[C@H](CC(C)C)NC(=O)[C@H](CCCNC(=N)N)NC(=O)C(C)(C)N)C(=O)N[C@@H](CCCNC(=N)N)C(=O)N[C@@H](CCCCN)C(=O)N[C@@H](Cc1cccs1)C(N)=O [UP09] (H-[Aib]RLFKKLLKYLRK[2Thi]-NH2; N-terminus assumed)	4 µg/mL (≈ 2.17 µM)	2 µg/mL (≈ 1.08 µM)	2 µg/mL (≈ 1.08 µM)	> 50%	> 30%	1.08	16.606 min						
CC(C)C[C@H](NC(=O)[C@H](CC(C)C)NC(=O)[C@@H](CCCCN)NC(=O)[C@@H](CCCCN)NC(=O)[C@H](Cc1ccccc1)NC(=O)[C@H](CC(C)C)NC(=O)[C@@H](CCCNC(=N)N)NC(=O)[C@H](N)CCCCN)C(=O)N[C@H](CCCCN)C(=O)N[C@@H](Cc1ccc(O)cc1)C(=O)N[C@@H](CC(C)C)C(=O)N[C@H](CCCNC(=N)N)C(=O)N[C@H](CCCCN)C(=O)N[C@@H](Cc1ccccc1)C(N)=O [DP06] (H-[dK][dR]LF[dK][dK]LL[dK]YL[dR][dK]F-NH2)	8 µg/mL (≈ 4.25 µM)	2 µg/mL (≈ 1.06 µM)	1 µg/mL (≈ 0.532 µM)		> 60%			No obvious degradation products	62.07 ± 3.27 %	61.2 ± 6.06%	63.5 ± 3.28%	> 90%	more than 60%
